A word on the DC50: it is the midpoint of the concentration-degradation curve. Higher therefore signals a less potent degrader. By Emax is commonly meant the greatest response seen or fitted, relative to the assay's reference.

The results in this text go back to patent US12559492B2, “BRAF degraders” (C4 Therapeutics, Inc., priority 2020, dated 2026).

In this experiment the target is BRAF^V600E protein (Homo sapiens, UniProt P15056, V600E). In words: HiBiT cellular BRAF V600E degradation assay. The conditions noted are these: 24 h incubation; for DC50: A375.10 cells (HiBiT tag knocked in at N-terminal of BRAF V600E), concentration at which 50% of total cellular BRAF V600E is degraded; for Emax: A375.10 cells, Emax = amount of residual protein remaining in the cell after compound treatment, read-out: HiBit 24 h Emax. It is filed as cell-based. (The HiBiT peptide binds its large partner to form an active luciferase.)
BRAF^V600E protein, sequence (P15056 whole entry V600E): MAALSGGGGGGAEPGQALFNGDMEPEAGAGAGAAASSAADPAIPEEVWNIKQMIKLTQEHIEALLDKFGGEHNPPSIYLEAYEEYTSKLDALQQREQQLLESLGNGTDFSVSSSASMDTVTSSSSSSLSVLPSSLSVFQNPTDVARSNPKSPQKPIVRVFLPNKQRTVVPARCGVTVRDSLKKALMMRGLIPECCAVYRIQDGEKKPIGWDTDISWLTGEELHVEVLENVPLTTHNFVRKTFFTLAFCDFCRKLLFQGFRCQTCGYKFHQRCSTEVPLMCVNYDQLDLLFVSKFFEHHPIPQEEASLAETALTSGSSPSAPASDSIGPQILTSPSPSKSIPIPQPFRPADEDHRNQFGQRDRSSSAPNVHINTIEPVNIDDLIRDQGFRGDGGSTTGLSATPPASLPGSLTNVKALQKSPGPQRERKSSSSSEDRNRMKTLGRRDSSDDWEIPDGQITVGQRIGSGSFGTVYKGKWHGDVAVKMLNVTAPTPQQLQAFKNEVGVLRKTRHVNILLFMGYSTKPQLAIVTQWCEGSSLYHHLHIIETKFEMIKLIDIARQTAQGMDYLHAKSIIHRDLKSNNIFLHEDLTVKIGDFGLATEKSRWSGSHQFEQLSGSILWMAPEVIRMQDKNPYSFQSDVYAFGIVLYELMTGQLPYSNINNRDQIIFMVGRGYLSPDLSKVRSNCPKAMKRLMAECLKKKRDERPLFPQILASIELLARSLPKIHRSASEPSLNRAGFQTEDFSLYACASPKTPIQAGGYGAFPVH

Turning to `CCN(C)S(=O)(=O)Nc1ccc(F)c(C(=O)c2c[nH]c3ncc(-c4ccc(N5CCN(C(=O)CN6CCC(c7ccc(N8CCC(=O)NC8=O)cc7)CC6)CC5)nc4)cc23)c1F` [Example A104, 5-[6-[4-[2-[4-[4-(2,4-Dioxo-1,3-diazinan-1-yl)phenyl]piperidin-1-yl]acetyl]piperazin-1-yl]pyridin-3-yl]-3-[3-[[ethyl(methyl)sulfamoyl]amino]-2,6-difluorobenzoyl]-1H-pyrrolo[2,3-b]pyridine], half-maximal degradation (DC50) was put at 10 nM and the Emax stood at 7%.

Regarding `CCN(C)S(=O)(=O)Nc1ccc(F)c(C(=O)c2c[nH]c3ncc(-c4cnc(N5CCN(C(=O)Cc6ccc(N7CCN(C8CCC(=O)NC8=O)C(=O)C7)cc6)CC5)nc4)cc23)c1F` (stereo not shown) [Example 50, 5-[2-[4-[2-[4-[4-(2,6-dioxo-3-piperidyl)-3-oxo-piperazin-1-yl]phenyl]acetyl]piperazin-1-yl]pyrimidin-5-yl]-3-[3-[[ethyl(methyl)sulfamoyl]amino]-2,6-difluoro-benzoyl]-1H-pyrrolo[2,3-b]pyridine], it took 4.57 nM to reach half-maximal degradation (DC50) and the Emax was 7.42%.

`CCN(C)S(=O)(=O)Nc1cccc(C(=O)c2c[nH]c3ncc(-c4cnc(N5CCN(C(=O)CC6(O)CCN(c7ccc(NC8CCC(=O)NC8=O)cn7)CC6)CC5)nc4)cc23)c1F` (stereo not shown) [Example 105, 5-[2-[4-[2-[1-[5-[(2,6-dioxo-3-piperidyl)amino]-2-pyridyl]-4-hydroxy-4-piperidyl]acetyl]piperazin-1-yl]pyrimidin-5-yl]-3-[3-[[ethyl(methyl)sulfamoyl]amino]-2-fluoro-benzoyl]-1H-pyrrolo[2,3-b]pyridine]: half-maximal degradation (DC50) was put at 42.2 nM and the maximum response (Emax) came to 36.9%.

Regarding `CCN(C)S(=O)(=O)Nc1cccc(C(=O)c2c[nH]c3ncc(-c4ccc(N5CCN(C(=O)CN6CCC(c7ccc(NC8CCC(=O)NC8=O)cc7)CC6)CC5)nc4)cc23)c1F` (stereo not shown) [Example 107, 5-[6-[4-[2-[4-[4-[(2,6-dioxo-3-piperidyl)amino]phenyl]-1-piperidyl]acetyl]piperazin-1-yl]-3-pyridyl]-3-[3-[[ethyl(methyl)sulfamoyl]amino]-2-fluoro-benzoyl]-1H-pyrrolo[2,3-b]pyridine], half-maximal degradation (DC50) was put at 3.08 nM and the maximum response (Emax) turned out to be 7.97%.

For the compound `CCN(C)S(=O)(=O)Nc1ccc(F)c(C(=O)c2c[nH]c3ncc(-c4cnc(N5CCN(C(=O)CC6(OP(=O)(O)O)CCN(c7ccc(C8CCC(=O)NC8=O)cc7F)CC6)CC5)nc4)cc23)c1F` (stereo not shown) [Example 158e, [1-[4-(2,6-dioxo-3-piperidyl)-2-fluoro-phenyl]-4-[2-[4-[5-[3-[3-[[ethyl(methyl)sulfamoyl]amino]-2,6-difluoro-benzoyl]-1H-pyrrolo[2,3-b]pyridin-5-yl]pyrimidin-2-yl]piperazin-1-yl]-2-oxo-ethyl]-4-piperidyl]dihydrogen phosphate], the DC50 was determined as 10.8 nM and the Emax worked out at 11.7%.

Turning to `CCN(C)S(=O)(=O)Nc1ccc(F)c(C(=O)c2c[nH]c3ncc(-c4ccc(N5CCN(C(=O)CCN6CCC(c7ccc(OC8CCC(=O)NC8=O)cc7)CC6)CC5)nc4)cc23)c1F` (stereo not shown) [Example A35, 5-[6-[4-[3-[4-[4-(2,6-Dioxopiperidin-3-yl)oxyphenyl]piperidin-1-yl]propanoyl]piperazin-1-yl]pyridin-3-yl]-3-[3-[[ethyl(methyl)sulfamoyl]amino]-2,6-difluorobenzoyl]-1H-pyrrolo[2,3-b]pyridine], it took 54 nM to reach half-maximal degradation (DC50) and the Emax came to 21%.

Consider `CCN(C)S(=O)(=O)Nc1cccc(C(=O)c2c[nH]c3ncc(-c4ccc(N5CCN(C(=O)CC6(O)CCN(c7ccc(NC8CCC(=O)NC8=O)cc7F)CC6)CC5)nc4)cc23)c1F` (stereo not shown) [Example 112, 5-[6-[4-[2-[1-[4-[(2,6-dioxo-3-piperidyl)amino]-2-fluoro-phenyl]-4-hydroxy-4-piperidyl]acetyl]piperazin-1-yl]-3-pyridyl]-3-[3-[[ethyl(methyl)sulfamoyl]amino]-2-fluoro-benzoyl]-1H-pyrrolo[2,3-b]pyridine], for which the half-maximal degradation concentration (DC50) stood at 6.46 nM and the Emax is 10.8%.

Turning to `CCN(C)S(=O)(=O)Nc1cccc(C(=O)c2c[nH]c3ncc(-c4cnc(N5CCN(C(=O)CN6CCC(c7ccc(NC8CCC(=O)NC8=O)cc7F)CC6)CC5)nc4)cc23)c1F` (stereo not shown) [Example 97, 5-[2-[4-[2-[4-[4-[(2,6-dioxo-3-piperidyl)amino]-2-fluoro-phenyl]-1-piperidyl]acetyl]piperazin-1-yl]pyrimidin-5-yl]-3-[3-[[ethyl(methyl)sulfamoyl]amino]-2-fluoro-benzoyl]-1H-pyrrolo[2,3-b]pyridine], it took 6.62 nM to reach half-maximal degradation (DC50) and the Emax was 7.94%.

For `CCN(C)S(=O)(=O)Nc1cccc(C(=O)c2c[nH]c3ncc(-c4cnc(N5CCN(C(=O)NC6CCN(c7ccc(NC8CCC(=O)NC8=O)cc7F)CC6)CC5)nc4)cc23)c1F` (stereo not shown) [Example 141, N-[1-[4-[(2,6-dioxo-3-piperidyl)amino]-2-fluoro-phenyl]-4-piperidyl]-4-[5-[3-[3-[[ethyl(methyl)sulfamoyl]amino]-2-fluoro-benzoyl]-1H-pyrrolo[2,3-b]pyridin-5-yl]pyrimidin-2-yl]piperazine-1-carboxamide], the DC50 came out at 2.84 nM and the Emax was determined as 7.91%.

Take `O=C1CCC(Nc2ccc(N3CCN(CC(=O)N4CCN(c5ccc(-c6cnc7[nH]cc(C(=O)c8c(F)ccc(NS(=O)(=O)N9CCCC9)c8F)c7c6)cn5)CC4)CC3)cc2)C(=O)N1` (stereo not shown) [Example A73, N-[3-[5-[6-[4-[2-[4-[4-[(2,6-Dioxopiperidin-3-yl)amino]phenyl]piperazin-1-yl]acetyl]piperazin-1-yl]pyridin-3-yl]-1H-pyrrolo[2,3-b]pyridine-3-carbonyl]-2,4-difluorophenyl]pyrrolidine-1-sulfonamide]: the DC50 stood at 6 nM and the Emax worked out at 19%.

As for `CCN(C)S(=O)(=O)Nc1ccc(F)c(C(=O)c2c[nH]c3ncc(-c4cnc(N5CCC(NC(=O)CN6CCC(c7ccc(OC8CCC(=O)NC8=O)cn7)CC6)CC5)nc4)cc23)c1F` (stereo not shown) [Example A60, 2-[4-[5-(2,6-Dioxopiperidin-3-yl)oxypyridin-2-yl]piperidin-1-yl]-N-[1-[5-[3-[3-[[ethyl(methyl)sulfamoyl]amino]-2,6-difluorobenzoyl]-1H-pyrrolo[2,3-b]pyridin-5-yl]pyrimidin-2-yl]piperidin-4-yl]acetamide;formic acid], the DC50 turned out to be 275 nM and the Emax was found to be 24%.

With `CCN(C)S(=O)(=O)Nc1ccc(F)c(C(=O)c2c[nH]c3ncc(-c4cnc(N5CCN(C(=O)CN6CCC(c7ccc(CN8CCC(=O)NC8=O)cc7)CC6)CC5)nc4)cc23)c1F` [Example 32, 5-[2-[4-[2-[4-[4-[(2,4-dioxohexahydropyrimidin-1-yl)methyl]phenyl]-1-piperidyl]acetyl]piperazin-1-yl]pyrimidin-5-yl]-3-[3-[[ethyl(methyl)sulfamoyl]amino]-2,6-difluoro-benzoyl]-1H-pyrrolo[2,3-b]pyridine], the 50% degradation concentration (DC50) stood at 35 nM and the maximum response (Emax) is 10.6%.

With `CCN(C)S(=O)(=O)Nc1ccc(F)c(C(=O)c2c[nH]c3ncc(-c4ccc(N5CCN(CCC6CCN(c7ccc(NC8CCC(=O)NC8=O)cc7)CC6)C(=O)C5)nc4)cc23)c1F` (stereo not shown) [Example 148, 5-[6-[4-[2-[1-[4-[(2,6-dioxo-3-piperidyl)amino]phenyl]-4-piperidyl]ethyl]-3-oxo-piperazin-1-yl]-3-pyridyl]-3-[3-[[ethyl(methyl)sulfamoyl]amino]-2,6-difluoro-benzoyl]-1H-pyrrolo[2,3-b]pyridine], half-maximal degradation (DC50) was put at 19.8 nM and the Emax amounted to 13.9%.

As for `CCN(C)S(=O)(=O)Nc1ccc(F)c(C(=O)c2c[nH]c3ncc(-c4cnc(N5CCN(C(=O)CC6(O)CCN(c7ccc(NC8CCC(=O)NC8=O)cc7F)C6)CC5)nc4)cc23)c1F` (stereo not shown) [Example 51, 5-[2-[4-[2-[1-[4-[(2,6-dioxo-3-piperidyl)amino]-2-fluoro-phenyl]-3-hydroxy-pyrrolidin-3-yl]acetyl]piperazin-1-yl]pyrimidin-5-yl]-3-[3-[[ethyl(methyl)sulfamoyl]amino]-2,6-difluoro-benzoyl]-1H-pyrrolo[2,3-b]pyridine], the half-maximal degradation concentration (DC50) turned out to be 5.51 nM and the maximum response (Emax) was found to be 6.09%.

Take `CCN(C)S(=O)(=O)Nc1ccc(F)c(C(=O)c2c[nH]c3ncc(-c4cnc(N5CCN(C(=O)CC6(O)CCN(c7ccc(N8CCC(=O)NC8=O)cc7F)CC6)CC5)c(F)c4)cc23)c1F` [Example 194, 5-[6-[4-[2-[1-[4-(2,4-dioxohexahydropyrimidin-1-yl)-2-fluoro-phenyl]-4-hydroxy-4-piperidyl]acetyl]piperazin-1-yl]-5-fluoro-3-pyridyl]-3-[3-[[ethyl(methyl)sulfamoyl]amino]-2,6-difluoro-benzoyl]-1H-pyrrolo[2,3-b]pyridine]: the DC50 was determined as 4.5 nM and the maximum response (Emax) is 8.29%.

On to `CCN(C)S(=O)(=O)Nc1ccc(F)c(C(=O)c2c[nH]c3ncc(-c4ccc(N5CCN(C(=O)CC6(O)CCN(c7ccc(NC8CCC(=O)NC8=O)cc7F)CC6)CC5)nc4)cc23)c1F` (stereo not shown) [Example 79, 5-[6-[4-[2-[1-[4-[(2,6-dioxo-3-piperidyl)amino]-2-fluoro-phenyl]-4-hydroxy-4-piperidyl]acetyl]piperazin-1-yl]-3-pyridyl]-3-[3-[[ethyl(methyl)sulfamoyl]amino]-2,6-difluoro-benzoyl]-1H-pyrrolo[2,3-b]pyridine], for which the DC50 was 2.13 nM and the maximal effect (Emax) came to 9.51%.

For the compound `CCN(C)S(=O)(=O)Nc1cccc(C(=O)c2c[nH]c3ncc(-c4ccc(N5CCN(C(=O)CC6(O)CCN(c7ncc(NC8CCC(=O)NC8=O)cc7F)CC6)CC5)nc4)cc23)c1F` (stereo not shown) [Example 115, 5-[6-[4-[2-[1-[5-[(2,6-dioxo-3-piperidyl)amino]-3-fluoro-2-pyridyl]-4-hydroxy-4-piperidyl]acetyl]piperazin-1-yl]-3-pyridyl]-3-[3-[[ethyl(methyl)sulfamoyl]amino]-2-fluoro-benzoyl]-1H-pyrrolo[2,3-b]pyridine], the DC50 came to 5.13 nM and the Emax worked out at 12.2%.
